Test results taken from patent publication US7094400B1, “Transkaryotic implantation” (Shire Human Genetic Therapies, Inc., priority 1987, dated 2006).

What was measured:
[1] = test system: mouse metallothionein-I promoter; assay: Zinc induction of hGH expression from intraperitoneally implanted cells (metallothionein-I promoter); format: in vivo, mice; settings: 76 mM ZnSO4 in drinking water; IP stably transfected cells
Experimental: As described above, the plasmid pXGH5 contains the mouse metallothionein-I promoter. In order to determine whether the implanted cells were sufficiently healthy to respond to their local environment, the ability of zinc to induce higher levels of human growth hormone expression was determined. Stably transfected cells, prepared as described in Example 1B, were implanted intraperitoneally in mice, some of which were given 76 mM ZnSO4 in their drinking water. The animals treated with zinc expressed ten-fold more human growth hormone in their serum than did those with no treatment. […] Furthermore, RNA prepared from cells recovered from subcapsular implants contained the correct mMT-I/human growth hormone fusion mRNA (FIG. 5). […] Of substantial importance is the fact that the cells, once in place in the animal, could still be modulated by external means.

[2] = test system: Transfected cells which expressed human growth hormone; assay: Effects of immunosuppression on IP cells, serum human growth hormone; format: in vivo; settings: for serum human growth hormone: in ng/mL
Description: If the transfected cells are destroyed by transplant rejection, immunosuppression should prolong the functional life of the implant.

Row | SMILES | human growth hormone in serum versus no treatment [1] | serum human growth hormone detectable until [2] [days post-implantation] | serum human growth hormone ([2]; day 1 post-implantation) | serum human growth hormone ([2]; day 2 post-implantation) | serum human growth hormone ([2]; day 4 post-implantation) | serum human growth hormone ([2]; day 21 post-implantation) | serum human growth hormone ([2]; day 27 post-implantation) | serum human growth hormone ([2]; day 41 post-implantation) | serum human growth hormone ([2]; day 48 post-implantation) | serum human growth hormone ([2]; days 8 to 10 post-implantation) | serum human growth hormone ([2]; days 15 to 17 post-implantation)
1 | O=S(=O)([O-])[O-].[Zn+2] [ZnSO4] | ten-fold more | – | – | – | – | – | – | – | – | – | –
2 | C[C@@H]1C[C@H]2[C@@H]3CCC4=CC(=O)C=C[C@]4(C)[C@@]3(F)[C@@H](O)C[C@]2(C)[C@@]1(O)C(=O)CO [Dexamethasone, dexamethasone] | – | 48 | 94.8 +/− 9.2 | 86.6 +/− 10.5 | 54.3 +/− 14.2 | 28.0 +/− 13.6 | 13.9 +/− 6.9 | 7.5 +/− 6.1 | 2.7 +/− 2.2 | 99.3 +/− 48.0 | 28.3 +/− 18.1
